Tests used:
Assay type in all cases: cell-based
Conditions in all cases: in combination with Akt activation inhibitor TCN-P
[1] = system: THP1 human leukemic cells; test: viability of THP1 human leukemic cells, combination with TCN-P
[2] = system: U937 human leukemic cells; test: viability of U937 human leukemic cells, combination with TCN-P
[3] = system: HL60 human leukemic cells; test: viability of HL60 human leukemic cells, combination with TCN-P

Measured: synergy with TCN-P to inhibit viability

C#Cc1cccc(Nc2ncnc3cc(OC)c(OCCCCCCC(=O)NO)cc23)c1 [CUDC-101]
synergizes with TCN-P: all assays above

Cc1cnc(NC(=O)Nc2cc(Br)c(C)cc2OC[C@@H]2CNCCO2)cn1 [LY2603618, rabusertib]
synergizes with TCN-P: all assays above
